# Patent US20140193827A1 (TEVA PHARMACEUTICAL INDUSTRIES, LTD., priority 2013, published 2014)
# System: GA-primed murine splenocytes
# Test: ANOVA-based pattern identification method
# Format: cell-based, mouse
# Source text: We sought to identify probes matching specific patterns of expression across experimental conditions using a technique that referred to as the ANOVA-based Pattern Identification Method.
# To carry out the analysis in a general manner, we computed the 6 p-values required to do pairwise comparisons of all 4 conditions for all probes using the ANOVA1 function in MATLAB. We then identified sets of probes matching the desired pattern. In the example above, probes were identified as being only affected by PG if their 6 pairwise comparison pvalues matched the following pattern (pGA-PG<0.05, pPG-reference standard<0.05, pPG-Medium<0.05, pGAMedium>0.05, pGA-reference standard>0.05, preference standard-Medium>0.05).
# [1] = DOWN IN GA AND REF ONLY, first line for this gene
# [2] = DOWN IN GA AND REF ONLY, second line for this gene
substance,measurement,setting,value
glatiramer acetate [GA],average expression of LOC382163,DOWN IN GA AND REF ONLY,6.742
same,average expression of LOC383099,DOWN IN GA AND REF ONLY,13.14
same,average expression of LOC386085,DOWN IN GA AND REF ONLY,6.21
same,average expression of LOC386117,DOWN IN GA AND REF ONLY,7.052
same,average expression of LOC636818,DOWN IN GA AND REF ONLY,5.986
same,average expression of LOC100046003,DOWN IN GA AND REF ONLY,8.735
same,average expression of LYNX1,DOWN IN GA AND REF ONLY,8.531
same,average expression of MBD1,DOWN IN GA AND REF ONLY,9.009
same,average expression of MBL1,DOWN IN GA AND REF ONLY,5.552
same,average expression of MKL1,DOWN IN GA AND REF ONLY,6.303
same,average expression of MREG,DOWN IN GA AND REF ONLY,8.88
same,average expression of MYO7A,DOWN IN GA AND REF ONLY,6.668
same,average expression of NEURL,DOWN IN GA AND REF ONLY,5.956
same,average expression of NISCH,DOWN IN GA AND REF ONLY,7.088
same,average expression of NOS3,DOWN IN GA AND REF ONLY,5.804
same,average expression of NTE,DOWN IN GA AND REF ONLY,8.3088
same,average expression of OLFR150,DOWN IN GA AND REF ONLY,5.626
same,average expression of OLFR516,DOWN IN GA AND REF ONLY,5.76
same,average expression of OLFR586,DOWN IN GA AND REF ONLY,5.541
same,average expression of OPHN1,DOWN IN GA AND REF ONLY,5.71
same,average expression of ORF19,DOWN IN GA AND REF ONLY,6.879
same,average expression of P2RX4,DOWN IN GA AND REF ONLY,7.358
same,average expression of PAPSS2,DOWN IN GA AND REF ONLY,6.662
same,average expression of PARD3B,DOWN IN GA AND REF ONLY,5.905
same,average expression of PCBP2,DOWN IN GA AND REF ONLY,12.63
same,average expression of PCDH19,DOWN IN GA AND REF ONLY,5.63
same,average expression of PEO1,DOWN IN GA AND REF ONLY,7.1356
same,average expression of PI4KB,DOWN IN GA AND REF ONLY,9.544
same,average expression of PIK3R6,DOWN IN GA AND REF ONLY,6.343
same,average expression of PLEKHB2,DOWN IN GA AND REF ONLY,9.006
same,average expression of PREP,DOWN IN GA AND REF ONLY,7.918
same,average expression of PRKCZ,DOWN IN GA AND REF ONLY,6.967
same,average expression of PROM,DOWN IN GA AND REF ONLY,5.87
same,average expression of RARG,DOWN IN GA AND REF ONLY,6.121
same,average expression of RASGRF1,DOWN IN GA AND REF ONLY,5.764
same,average expression of RBM15,DOWN IN GA AND REF ONLY,7.902
same,average expression of RCCD1,DOWN IN GA AND REF ONLY,8.174
same,average expression of REN1,DOWN IN GA AND REF ONLY,5.599
same,average expression of RFFL,DOWN IN GA AND REF ONLY,7.211
same,average expression of RHBDD1,DOWN IN GA AND REF ONLY,7.627
same,average expression of RING1,DOWN IN GA AND REF ONLY,8.656
same,average expression of RNF10,DOWN IN GA AND REF ONLY,11.45
same,average expression of RNF123,DOWN IN GA AND REF ONLY,7.4966
same,average expression of S031414D18RIK,DOWN IN GA AND REF ONLY,8.467
same,average expression of SCL0004023.1_57,DOWN IN GA AND REF ONLY,5.99
same,average expression of SEC16A,DOWN IN GA AND REF ONLY,9.968
same,average expression of SETD1A,DOWN IN GA AND REF ONLY,8.956
same,average expression of SFXN3,DOWN IN GA AND REF ONLY,6.025
same,average expression of SGPL1,DOWN IN GA AND REF ONLY,7.481
same,average expression of SHC1,DOWN IN GA AND REF ONLY,11.03
same,average expression of SHKBP1,DOWN IN GA AND REF ONLY,8.287
same,average expression of SLC9A4,DOWN IN GA AND REF ONLY,5.715
same,average expression of SLC25A42,DOWN IN GA AND REF ONLY,6.212
same,average expression of SLC35E4,DOWN IN GA AND REF ONLY,5.806
same,average expression of SLCO6C1,DOWN IN GA AND REF ONLY,5.618
same,average expression of SMARCE1,DOWN IN GA AND REF ONLY,9.332
same,average expression of SNX15,DOWN IN GA AND REF ONLY,9.294
same,average expression of SNX33,DOWN IN GA AND REF ONLY,6.987
same,average expression of SOLH,DOWN IN GA AND REF ONLY,7.952
same,average expression of SP2,DOWN IN GA AND REF ONLY,6.867
same,average expression of SRGAP2,DOWN IN GA AND REF ONLY,7.797
same,average expression of SRGAP3,DOWN IN GA AND REF ONLY,6.074
same,average expression of STARD3,DOWN IN GA AND REF ONLY,8.435
same,average expression of TBC1D2,DOWN IN GA AND REF ONLY,6.839
same,average expression of TBC1D25,DOWN IN GA AND REF ONLY,7.965
same,average expression of TEAD4,DOWN IN GA AND REF ONLY,5.994
same,average expression of TGFBI,DOWN IN GA AND REF ONLY,6.19
same,average expression of TGIF1,DOWN IN GA AND REF ONLY,8.224
same,average expression of TIMM8A2,DOWN IN GA AND REF ONLY,5.837
same,average expression of TLR13,DOWN IN GA AND REF ONLY,6.019
same,average expression of TMEM56,DOWN IN GA AND REF ONLY,5.549
same,average expression of TMEM63A,DOWN IN GA AND REF ONLY,7.667
same,average expression of TMUB1,DOWN IN GA AND REF ONLY,8.55
same,average expression of TNS4,DOWN IN GA AND REF ONLY,5.759
same,average expression of TRP53,DOWN IN GA AND REF ONLY,9.698
same,average expression of TYROBP,DOWN IN GA AND REF ONLY,7.408
same,average expression of USP11,DOWN IN GA AND REF ONLY,6.423
same,average expression of USP22,DOWN IN GA AND REF ONLY,9.057
same,average expression of USP54,DOWN IN GA AND REF ONLY,6.972
same,average expression of WWP2,DOWN IN GA AND REF ONLY,8.833
same,average expression of ZC3H12A,DOWN IN GA AND REF ONLY,8.215
same,average expression of ZFP36L1,DOWN IN GA AND REF ONLY,13.82
same,average expression of ZFP317,DOWN IN GA AND REF ONLY,7.218
same,average expression of ZFP704,DOWN IN GA AND REF ONLY,5.829
same,average expression of ZFPL1,DOWN IN GA AND REF ONLY,7.39
same,genericLS expression level,DOWN IN GA AND REF ONLY,6.212
same,average expression of CLEC4B1,[1],5.984
same,average expression of LOC100048105,[1],13.17
same,average expression of SLC11A1,[1],6.429
same,average expression of CLEC4B1,[2],5.725
same,average expression of LOC100048105,[2],13.47
same,average expression of SLC11A1,[2],6.896
same,average expression of GAS7,"DOWN IN GA AND REF ONLY, second line for this gene (first at r2479)",6.6505
same,29D0003A17RIK expression level,DOWN IN generic ONLY,6.032
same,1700081L16RIK expression level,DOWN IN generic ONLY,5.561
same,2210003I03RIK expression level,DOWN IN generic ONLY,5.693
same,3110052M02RIK expression level,DOWN IN generic ONLY,5.651
same,3110079O15RIK expression level,DOWN IN generic ONLY,5.642
same,4833419KD8RIK expression level,DOWN IN generic ONLY,5.588
same,4921522P10RIK expression level,DOWN IN generic ONLY,5.793
same,4930543E05RIK expression level,DOWN IN generic ONLY,5.681
same,4930571C24RIK expression level,DOWN IN generic ONLY,5.414
same,5730599A22RIK expression level,DOWN IN generic ONLY,5.675
same,6430527G18RIK expression level,DOWN IN generic ONLY,5.618
same,6720487G11RIK expression level,DOWN IN generic ONLY,5.949
same,A230066D03RIK expression level,DOWN IN generic ONLY,5.913
same,A530088H08RIK expression level,DOWN IN generic ONLY,5.838
same,A830021M18 expression level,DOWN IN generic ONLY,5.662
same,ADAMTSL3 expression level,DOWN IN generic ONLY,5.806
same,B230323D24RIK expression level,DOWN IN generic ONLY,5.81
same,BRPF1 expression level,DOWN IN generic ONLY,8.958
same,BTF3L4 expression level,DOWN IN generic ONLY,5.682
same,C430020E23RIK expression level,DOWN IN generic ONLY,5.906
same,CNTN2 expression level,DOWN IN generic ONLY,5.729
same,CORO1B expression level,DOWN IN generic ONLY,11.36
same,CRAT expression level,DOWN IN generic ONLY,5.921
same,CREBZF expression level,DOWN IN generic ONLY,5.66
same,D130050A01RIK expression level,DOWN IN generic ONLY,5.633
same,D130061E05RIK expression level,DOWN IN generic ONLY,5.723
same,D130063P19RIK expression level,DOWN IN generic ONLY,5.768
same,D530031C13RIK expression level,DOWN IN generic ONLY,5.728
same,DLG1 expression level,DOWN IN generic ONLY,5.734
same,EFCAB1 expression level,DOWN IN generic ONLY,5.72
same,EG634762 expression level,DOWN IN generic ONLY,5.772
same,ELMO2 expression level,DOWN IN generic ONLY,5.907
same,ENSMUSG00000071316 expression level,DOWN IN generic ONLY,5.766
same,EZH2 expression level,DOWN IN generic ONLY,5.625
